SMILES strings stand for the structures. pIC50: −log10 of the molar value. Read-outs that look alike come from different tables or passages of the source.

This test concerns human multiple myeloma cell line, OPM-2. The test is described as follows: Cell viability assay (OPM-2 10 FBS), CellTiter-Glo. In kind it is cell-based. The essentials:
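IC50 values come from 4-parameter logistic fits of luminescence signals reflecting cell viability. Treatment lasted 16 h at 37 °C in complete medium with 10% FBS, starting from 3000 cells/well.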

Where [1] appears, read: Homo sapiens, OPM-2, 16 h, read-out: OPM-2 10% FBS IC50 IP, OPM-2 cells, 10% FBS, 16 h incubation.
The mark [2] stands for this setting: Homo sapiens, OPM-2, 16 h, read-out: OPM-2 10% FBS IC50 IP, OPM-2 cells, 10% FBS, 16 h, CellTiter-Glo.

`CCO[C@@]1(CN2CCN(C3(C)COC3)CC2)/C=C/C[C@H](C)[C@@H](C)S(=O)(=O)NC(=O)c2ccc3c(c2)N(C[C@@H]2CC[C@H]21)C[C@@]1(CCCc2cc(Cl)ccc21)CO3` [Example 311, (1S,3′R,6′R,7′S,8′E,11′S,12′R)-6-chloro-7′-ethoxy-11′,12′-dimethyl-7′-((4-(3-methyl-3-oxetanyl)-1-piperazinyl)methyl)-3,4-dihydro-2H,15′H-spiro[naphthalene-1,22′-[20]oxa[13]thia[1,14]diazatetracyclo [14.7.2.0~3,6~.0~19,24~]pentacosa[8,16,18,24]tetraen]-15′-one 13′,13′-dioxide]: the pIC50 under setting [1] is 6.44.

As for `CO[C@@]1(CN2CCC(N3CCOCC3)CC2)/C=C/C[C@H](C)[C@@H](C)S(=O)(=O)NC(=O)c2ccc3c(c2)N(C[C@@H]2CC[C@H]21)C[C@@]1(CCCc2cc(Cl)ccc21)CO3` [Example 263, (1S,3′R,6′R,7′S,8′E,11′S,12′R)-6-chloro-7′-methoxy-11′,12′-dimethyl-7′-((4-(4-morpholinyl)-1-piperidinyl)methyl)-3,4-dihydro-2H,15′H-spiro[naphthalene-1,22′-[20]oxa[13]thia[1,14]diazaetracyclo [14.7.2.0~3,6~.0~19,24~]pentacosa[8,16,18,24]tetraen]-15′-one 13′,13′-dioxide], the pIC50 under setting [1] is 6.91.

Take `CCN(CC)C(=O)C[C@]1(OC)/C=C/C[C@H](C)[C@@H](C)S(=O)(=O)NC(=O)c2ccc3c(c2)N(C[C@@H]2CC[C@H]21)C[C@@]1(CCCc2cc(Cl)ccc21)CO3` [Example 100347, 2-((1S,3′R,6′R,7′S,8′E,11′S,12′R)-6-chloro-7′-methoxy-11′,12′-dimethyl-13′,13′-dioxido-15′-oxo-3,4-dihydro-2H-spiro[naphthalene-1,22′-[20]oxa[13]thia[1,14]diazatetracyclo [14.7.2.0~3,6~.0~19,24~]pentacosa[8,16,18,24]tetraen]-7′-yl)-N,N-diethylacetamide]: under setting [2], the pIC50 is 5.97.

As for `CCO[C@]1(CN2CCN(C3COC3)CC2)/C=C/C[C@H](C)[C@@H](C)S(=O)(=O)NC(=O)c2ccc3c(c2)N(C[C@@H]2CC[C@H]21)C[C@@]1(CCCc2cc(Cl)ccc21)CO3` [Example 2, (1 S,3′R,6′R,7′R,8′E,11′S,12′R)-6-chloro-7′-ethoxy-11′,12′-dimethyl-7′-((4-(3-oxetanyl)-1-piperazinyl)methyl)-3,4-dihydro-2H, 15′H-spiro[naphthalene-1,22′-[20]oxa[13]thia[1,14]diazatetracyclo[14.7.2.0-3,6˜.0˜19,24˜]pentacosa[8,16,18,24]tetraen]-15′-one 13′,13′-dioxide], under setting [1], the negative logarithm of the IC50 (pIC50) was 7.12.

With `CO[C@@]1(CC(=O)N(C)C)/C=C/C[C@H](C)[C@@H](C)S(=O)(=O)NC(=O)c2ccc3c(c2)N(C[C@@H]2CC[C@H]21)C[C@@]1(CCCc2cc(Cl)ccc21)CO3` [Example 100135, 2-((1S,3′R,6′R,7′S,8′E,11′S,12′R)-6-chloro-7′-methoxy-11′,12′-dimethyl-13′,13′-dioxido-15′-oxo-3,4-dihydro-2H-spiro[naphthalene-1,22′-[20]oxa[13]thia[1,14]diazatetracyclo [14.7.2.0~3,6~.0~19,24~]pentacosa[8,16,18,24]tetraen]-7′-yl)-N,N-dimethylacetamide], the pIC50 (read-out: OPM-2 10% FBS IC50 IP, OPM-2 cells, 10% FBS, 16 h, CellTiter-Glo) was 6.79.

With `COC(=O)C(C)(C)NC(=O)C[C@]1(OC)/C=C/C[C@H](C)[C@@H](C)S(=O)(=O)NC(=O)c2ccc3c(c2)N(C[C@@H]2CC[C@H]21)C[C@@]1(CCCc2cc(Cl)ccc21)CO3` [Example 100544, methyl N-(((1S,3′R,6′R,7′S,8′E,11′S,12′R)-6-chloro-7′-methoxy-11′,12′-dimethyl-13′,13′-dioxido-15′-oxo-3,4-dihydro-2H-spiro[naphthalene-1,22′-[20]oxa[13]thia[1,14]diazatetracyclo [14.7.2.0~3,6~.0~19,24~]pentacosa[8,16,18,24]tetraen]-7′-yl)acetyl)-2-methylalaninate], under setting [2], the negative logarithm of the IC50 (pIC50) is 6.51.

Source of the values: patent publication US10821115B2, “Compounds that inhibit Mcl-1 protein” (priority 2017, dated 2020).
